In brackets after ≈: the same amount, converted by molar mass. Activity calls are given as the source filed them. No cut-off for these calls is given here.
Columns and labels:
Aspergillus niger [1] = assay: Antifungal activity against Aspergillus niger NCIM 1196 at 1000 ug/disk after 72 hr by disk diffusion method; format: functional; settings: for zone of inhibition at 1000 µg/disc: NCIM 1196, 72 h, read-out: DIZ
Streptomyces albus [2] = assay: Antibacterial activity against Streptomyces albus NCIM 2178 at 500 ug/disk after 24 hr by disk diffusion method; format: functional, organism-based
Escherichia coli [3] = assay: Antibacterial activity against Escherichia coli NCIM 2065 at 1000 ug/disk after 24 hr by disk diffusion method; format: functional; settings: NCIM 2065, 24 h, read-out: DIZ
Pseudomonas aeruginosa [4] = assay: Antibacterial activity against Pseudomonas aeruginosa NCIM 2200 at 1000 ug/disk after 24 hr by disk diffusion method; format: functional; settings: NCIM 2200, 24 h, read-out: DIZ
Aspergillus flavus [5] = assay: Antifungal activity against Aspergillus flavus NCIM 535 at 500 ug/disk after 72 hr by disk diffusion method; format: functional
Escherichia coli [6] = assay: Antibacterial activity against Escherichia coli NCIM 2065 after 24 hr by broth dilution assay; format: functional; settings: NCIM 2065, 24 h
Streptomyces albus [7] = assay: Antibacterial activity against Streptomyces albus NCIM 2178 at 1000 ug/disk after 24 hr by disk diffusion method; format: functional; settings: for zone of inhibition at 1000 µg/disc: NCIM 2178, 24 h, read-out: DIZ
Rhodotorula mucilaginosa [8] = assay: Antifungal activity against Rhodotorula mucilaginosa NCIM 3174 at 500 ug/disk after 72 hr by disk diffusion method; format: functional
Lipomyces lipofer [9] = assay: Antifungal activity against Lipomyces lipofer NCIM 3252 at 500 ug/disk after 72 hr by disk diffusion method; format: functional
Bacillus cereus [10] = assay: Antibacterial activity against Bacillus cereus NCIM 2155 after 24 hr by broth dilution assay; format: functional; settings: NCIM 2155, 24 h
Bacillus cereus [11] = assay: Antibacterial activity against Bacillus cereus NCIM 2155 at 1000 ug/disk after 24 hr by disk diffusion method; format: functional; settings: NCIM 2155, 24 h, read-out: DIZ
Bacillus subtilis [12] = assay: Antibacterial activity against Bacillus subtilis NCIM 2063 at 1000 ug/disk after 24 hr by disk diffusion method; format: functional; settings: NCIM 2063, 24 h, read-out: DIZ
Aspergillus niger [13] = assay: Antifungal activity against Aspergillus niger NCIM 1196 at 500 ug/disk after 72 hr by disk diffusion method; format: functional
Rhodotorula mucilaginosa [14] = assay: Antifungal activity against Rhodotorula mucilaginosa NCIM 3174 at 1000 ug/disk after 72 hr by disk diffusion method; format: functional; settings: for zone of inhibition at 1000 µg/disc: NCIM 3174, 72 h, read-out: DIZ
Klebsiella aerogenes [15] = assay: Antibacterial activity against Enterobacter aerogenes NCIM 2239 after 24 hr by broth dilution assay; format: functional; settings: NCIM 2239, 24 h
Candida albicans [16] = assay: Antifungal activity against Candida albicans NCIM 3471 at 1000 ug/disk after 72 hr by disk diffusion method; format: functional
Aspergillus niger [17] = assay: Antifungal activity against Aspergillus niger NCIM 1196 after 72 hr by broth dilution assay; format: functional; settings: NCIM 1196, 72 h
Lipomyces lipofer [18] = assay: Antifungal activity against Lipomyces lipofer NCIM 3252 at 1000 ug/disk after 72 hr by disk diffusion method; format: functional
Penicillium chrysogenum [19] = assay: Antifungal activity against Penicillium chrysogenum NCIM 707 at 500 ug/disk after 72 hr by disk diffusion method; format: functional
Pseudomonas aeruginosa [20] = assay: Antibacterial activity against Pseudomonas aeruginosa NCIM 2200 at 500 ug/disk after 24 hr by disk diffusion method; format: functional
Lipomyces lipofer [21] = assay: Antifungal activity against Lipomyces lipofer NCIM 3252 after 72 hr by broth dilution assay; format: functional; settings: NCIM 3252, 72 h
Bacillus subtilis [22] = assay: Antibacterial activity against Bacillus subtilis NCIM 2063 at 500 ug/disk after 24 hr by disk diffusion method; format: functional
Pseudomonas aeruginosa [23] = assay: Antibacterial activity against Pseudomonas aeruginosa NCIM 2200 after 24 hr by broth dilution assay; format: functional; settings: NCIM 2200, 24 h
Bacillus subtilis [24] = assay: Antibacterial activity against Bacillus subtilis NCIM 2063 after 24 hr by broth dilution assay; format: functional; settings: NCIM 2063, 24 h
Bacillus cereus [25] = assay: Antibacterial activity against Bacillus cereus NCIM 2155 at 500 ug/disk after 24 hr by disk diffusion method; format: functional; settings: NCIM 2155, 24 h, read-out: DIZ
Klebsiella aerogenes [26] = assay: Antibacterial activity against Enterobacter aerogenes NCIM 2239 at 1000 ug/disk after 24 hr by disk diffusion method; format: functional; settings: NCIM 2239, 24 h, read-out: DIZ
Penicillium chrysogenum [27] = assay: Antifungal activity against Penicillium chrysogenum NCIM 707 at 1000 ug/disk after 72 hr by disk diffusion method; format: functional
Escherichia coli [28] = assay: Antibacterial activity against Escherichia coli NCIM 2065 at 500 ug/disk after 24 hr by disk diffusion method; format: functional; settings: NCIM 2065, 24 h, read-out: DIZ
Klebsiella aerogenes [29] = assay: Antibacterial activity against Enterobacter aerogenes NCIM 2239 at 500 ug/disk after 24 hr by disk diffusion method; format: functional
Aspergillus flavus [30] = assay: Antifungal activity against Aspergillus flavus NCIM 535 at 1000 ug/disk after 72 hr by disk diffusion method; format: functional; settings: for zone of inhibition at 1000 µg/disc: NCIM 535, 72 h, read-out: DIZ
Candida albicans [31] = assay: Antifungal activity against Candida albicans NCIM 3471 at 500 ug/disk after 72 hr by disk diffusion method; format: functional
Streptomyces albus [32] = assay: Antibacterial activity against Streptomyces albus NCIM 2178 after 24 hr by broth dilution assay; format: functional; settings: NCIM 2178, 24 h

In the case of `Cc1ccc2nc3[nH]c(=S)[nH]c(=O)c3cc2c1`, the zone of inhibition at 1000 µg/disc (Aspergillus niger [1]) is reported as 14 mm, the “diameter of the inhibition zone (DIZ)” value (Streptomyces albus [2]) is reported as “inactive” and the zone of inhibition at 1000 µg/disc (Escherichia coli [3]) is reported as 11 mm. The zone of inhibition at 1000 µg/disc (Pseudomonas aeruginosa [4]) was 12 mm, the “diameter of the inhibition zone (DIZ)” value (Aspergillus flavus [5]) was “inactive” and the MIC (Escherichia coli [6]) was 31.2 µg/mL (≈ 128 µM). The zone of inhibition at 1000 µg/disc (Streptomyces albus [7]) was 9 mm, the “diameter of the inhibition zone (DIZ)” value (Rhodotorula mucilaginosa [8]) was “inactive” and the zone of inhibition at 500 µg/disc (Lipomyces lipofer [9]; NCIM 3252, 72 h, read-out: DIZ) was 9 mm. The MIC (Bacillus cereus [10]) was 62.5 µg/mL (≈ 257 µM), the zone of inhibition at 1000 µg/disc (Bacillus cereus [11]) was 10 mm and the zone of inhibition at 1000 µg/disc (Bacillus subtilis [12]) was 12 mm. It also gave a zone of inhibition at 500 µg/disc (Aspergillus niger [13]; NCIM 1196, 72 h, read-out: DIZ) of 11 mm, a zone of inhibition at 1000 µg/disc (Rhodotorula mucilaginosa [14]) of 9 mm and an MIC (Klebsiella aerogenes [15]) of 7.8 µg/mL (≈ 32.1 µM). For the same compound, the “diameter of the inhibition zone (DIZ)” value (Candida albicans [16]) was “inactive”, the MIC (Aspergillus niger [17]) was 3.9 µg/mL (≈ 16 µM) and the zone of inhibition at 1000 µg/disc (Lipomyces lipofer [18]; NCIM 3252, 72 h, read-out: DIZ) was 10 mm. For the same compound, the “diameter of the inhibition zone (DIZ)” value (Penicillium chrysogenum [19]) was “inactive”, the “diameter of the inhibition zone (DIZ)” value (Pseudomonas aeruginosa [20]) was “inactive” and the MIC (Lipomyces lipofer [21]) was 62.5 µg/mL (≈ 257 µM). For the same compound, the “diameter of the inhibition zone (DIZ)” value (Bacillus subtilis [22]) was “inactive”, the MIC (Pseudomonas aeruginosa [23]) was 62.5 µg/mL (≈ 257 µM) and the MIC (Bacillus subtilis [24]) was 31.2 µg/mL (≈ 128 µM). For the same compound, the zone of inhibition at 500 µg/disc (Bacillus cereus [25]) was 8 mm, the zone of inhibition at 1000 µg/disc (Klebsiella aerogenes [26]) was 13 mm and the “diameter of the inhibition zone (DIZ)” value (Penicillium chrysogenum [27]) was “inactive”. It also gave a zone of inhibition at 500 µg/disc (Escherichia coli [28]) of 9 mm, a zone of inhibition at 500 µg/disc (Klebsiella aerogenes [29]; NCIM 2239, 24 h, read-out: DIZ) of 9 mm and a zone of inhibition at 1000 µg/disc (Aspergillus flavus [30]) of 8 mm. For the same compound, the “diameter of the inhibition zone (DIZ)” value (Candida albicans [31]) was “inactive”.
In the case of `O=c1[nH]c(=O)c2cc3cc(Cl)ccc3nc2[nH]1`, the “diameter of the inhibition zone (DIZ)” value (Aspergillus niger [1]) is reported as “inactive”, the “diameter of the inhibition zone (DIZ)” value (Streptomyces albus [2]) is reported as “inactive” and the zone of inhibition at 1000 µg/disc (Escherichia coli [3]) is reported as 12 mm. The zone of inhibition at 1000 µg/disc (Pseudomonas aeruginosa [4]) was 12 mm, the “diameter of the inhibition zone (DIZ)” value (Aspergillus flavus [5]) was “inactive” and the MIC (Escherichia coli [6]) was 7.8 µg/mL (≈ 31.5 µM). The zone of inhibition at 1000 µg/disc (Streptomyces albus [7]) was 10 mm, the “diameter of the inhibition zone (DIZ)” value (Rhodotorula mucilaginosa [8]) was “inactive” and the “diameter of the inhibition zone (DIZ)” value (Lipomyces lipofer [9]) was “inactive”. It also gave an MIC (Bacillus cereus [10]) of 31.2 µg/mL (≈ 126 µM), a zone of inhibition at 1000 µg/disc (Bacillus cereus [11]) of 10 mm and a zone of inhibition at 1000 µg/disc (Bacillus subtilis [12]) of 12 mm. For the same compound, the “diameter of the inhibition zone (DIZ)” value (Aspergillus niger [13]) was “inactive”, the zone of inhibition at 1000 µg/disc (Rhodotorula mucilaginosa [14]) was 9 mm and the MIC (Klebsiella aerogenes [15]) was 62.5 µg/mL (≈ 252 µM). The zone of inhibition at 1000 µg/disc (Candida albicans [16]; NCIM 3471, 72 h, read-out: DIZ) was 10 mm, the “diameter of the inhibition zone (DIZ)” value (Lipomyces lipofer [18]) was “inactive” and the “diameter of the inhibition zone (DIZ)” value (Penicillium chrysogenum [19]) was “inactive”. For the same compound, the “diameter of the inhibition zone (DIZ)” value (Pseudomonas aeruginosa [20]) was “inactive”, the zone of inhibition at 500 µg/disc (Bacillus subtilis [22]; NCIM 2063, 24 h, read-out: DIZ) was 8 mm and the MIC (Pseudomonas aeruginosa [23]) was 31.2 µg/mL (≈ 126 µM). The MIC (Streptomyces albus [32]) was 62.5 µg/mL (≈ 252 µM), the MIC (Bacillus subtilis [24]) was 31.2 µg/mL (≈ 126 µM) and the zone of inhibition at 500 µg/disc (Bacillus cereus [25]) was 8 mm. For the same compound, the zone of inhibition at 1000 µg/disc (Klebsiella aerogenes [26]) was 8 mm, the “diameter of the inhibition zone (DIZ)” value (Penicillium chrysogenum [27]) was “inactive” and the zone of inhibition at 500 µg/disc (Escherichia coli [28]) was 9 mm. The “diameter of the inhibition zone (DIZ)” value (Klebsiella aerogenes [29]) was “inactive”, the “diameter of the inhibition zone (DIZ)” value (Aspergillus flavus [30]) was “inactive” and the “diameter of the inhibition zone (DIZ)” value (Candida albicans [31]) was “inactive”.
For `O=c1[nH]c(=O)c2cc3cc(Br)ccc3nc2[nH]1`, the zone of inhibition at 1000 µg/disc (Aspergillus niger [1]) was 12 mm, the “diameter of the inhibition zone (DIZ)” value (Streptomyces albus [2]) was “inactive” and the zone of inhibition at 1000 µg/disc (Escherichia coli [3]) was 11 mm. For the same compound, the zone of inhibition at 1000 µg/disc (Pseudomonas aeruginosa [4]) was 12 mm, the “diameter of the inhibition zone (DIZ)” value (Aspergillus flavus [5]) was “inactive” and the MIC (Escherichia coli [6]) was 7.8 µg/mL (≈ 26.7 µM). For the same compound, the “diameter of the inhibition zone (DIZ)” value (Streptomyces albus [7]) was “inactive”, the “diameter of the inhibition zone (DIZ)” value (Rhodotorula mucilaginosa [8]) was “inactive” and the “diameter of the inhibition zone (DIZ)” value (Lipomyces lipofer [9]) was “inactive”. It also gave an MIC (Bacillus cereus [10]) of 62.5 µg/mL (≈ 214 µM), a zone of inhibition at 1000 µg/disc (Bacillus cereus [11]) of 11 mm and a zone of inhibition at 1000 µg/disc (Bacillus subtilis [12]) of 12 mm. For the same compound, the “diameter of the inhibition zone (DIZ)” value (Aspergillus niger [13]) was “inactive”, the “diameter of the inhibition zone (DIZ)” value (Rhodotorula mucilaginosa [14]) was “inactive” and the MIC (Klebsiella aerogenes [15]) was 62.5 µg/mL (≈ 214 µM). The “diameter of the inhibition zone (DIZ)” value (Candida albicans [16]) was “inactive”, the MIC (Aspergillus niger [17]) was 62.5 µg/mL (≈ 214 µM) and the “diameter of the inhibition zone (DIZ)” value (Lipomyces lipofer [18]) was “inactive”. For the same compound, the “diameter of the inhibition zone (DIZ)” value (Penicillium chrysogenum [19]) was “inactive”, the zone of inhibition at 500 µg/disc (Pseudomonas aeruginosa [20]; NCIM 2200, 24 h, read-out: DIZ) was 9 mm and the “diameter of the inhibition zone (DIZ)” value (Bacillus subtilis [22]) was “inactive”. The MIC (Pseudomonas aeruginosa [23]) was 31.2 µg/mL (≈ 107 µM), the MIC (Bacillus subtilis [24]) was 31.2 µg/mL (≈ 107 µM) and the zone of inhibition at 500 µg/disc (Bacillus cereus [25]) was 8 mm. The zone of inhibition at 1000 µg/disc (Klebsiella aerogenes [26]) was 10 mm, the “diameter of the inhibition zone (DIZ)” value (Penicillium chrysogenum [27]) was “inactive” and the zone of inhibition at 500 µg/disc (Escherichia coli [28]) was 7 mm. For the same compound, the “diameter of the inhibition zone (DIZ)” value (Klebsiella aerogenes [29]) was “inactive”, the zone of inhibition at 1000 µg/disc (Aspergillus flavus [30]) was 11 mm and the “diameter of the inhibition zone (DIZ)” value (Candida albicans [31]) was “inactive”.

From ChEMBL document CHEMBL3045679, “Microwave-assisted synthesis and pharmacological studies of novel 5-deazaalloxazine derivatives” (2012)
